Where two headings read alike, the source gives them in different places.
What was measured:
Assay in all cases: HotSpot kinase profiling
Assay type in all cases: biochemical
EPHA3 = biological target: T1, EPHA3 (Homo sapiens, UniProt P29320)
T1 construct: purchased Reaction Biology Corp
T1 sequence (P29320 21-983): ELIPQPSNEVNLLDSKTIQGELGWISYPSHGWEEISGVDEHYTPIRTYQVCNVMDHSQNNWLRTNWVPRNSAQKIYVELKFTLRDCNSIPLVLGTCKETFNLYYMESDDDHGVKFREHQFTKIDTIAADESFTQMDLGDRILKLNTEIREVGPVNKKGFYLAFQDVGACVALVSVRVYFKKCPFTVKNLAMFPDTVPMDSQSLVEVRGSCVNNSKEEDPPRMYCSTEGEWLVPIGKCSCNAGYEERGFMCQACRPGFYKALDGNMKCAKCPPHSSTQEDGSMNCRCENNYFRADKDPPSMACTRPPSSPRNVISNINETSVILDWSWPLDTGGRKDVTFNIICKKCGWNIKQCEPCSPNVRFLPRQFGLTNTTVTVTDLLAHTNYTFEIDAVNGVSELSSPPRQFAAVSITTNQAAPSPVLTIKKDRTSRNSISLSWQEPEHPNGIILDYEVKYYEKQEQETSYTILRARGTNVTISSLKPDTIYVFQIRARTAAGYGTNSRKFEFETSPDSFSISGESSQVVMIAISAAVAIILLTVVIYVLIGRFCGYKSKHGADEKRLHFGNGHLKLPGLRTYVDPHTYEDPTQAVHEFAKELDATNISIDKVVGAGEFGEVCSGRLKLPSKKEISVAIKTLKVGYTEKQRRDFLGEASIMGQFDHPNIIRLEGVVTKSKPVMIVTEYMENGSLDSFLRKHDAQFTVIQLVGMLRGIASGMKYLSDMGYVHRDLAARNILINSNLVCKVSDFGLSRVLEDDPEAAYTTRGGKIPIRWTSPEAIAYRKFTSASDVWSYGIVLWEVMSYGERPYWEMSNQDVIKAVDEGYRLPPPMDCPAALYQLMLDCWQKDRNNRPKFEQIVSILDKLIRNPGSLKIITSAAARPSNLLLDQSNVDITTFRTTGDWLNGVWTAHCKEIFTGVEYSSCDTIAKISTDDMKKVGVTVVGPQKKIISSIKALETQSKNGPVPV
Summary of the method: (§1)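 Radiometric kinase assay with P81 filter capture; each kinase was added to fresh substrate plus cofactors in reaction buffer and incubated 2 h at room temperature. Unreacted phosphate was washed off with 0.1% phosphoric acid before detection; percent inhibition is relative to DMSO control, averaged over replicates.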

CSK = biological target: T2, CSK (Homo sapiens, UniProt P41240)
T2 construct: purchased Reaction Biology Corp
Summary of the method: as §1

DAPK2 = biological target: T3, DAPK2 (Homo sapiens, UniProt Q9UIK4)
T3 construct: purchased Reaction Biology Corp
Summary of the method: as §1

NEK11 = biological target: T4, NEK11 (Homo sapiens, UniProt Q8NG66)
T4 construct: purchased Reaction Biology Corp
T4 sequence (Q8NG66 1-645): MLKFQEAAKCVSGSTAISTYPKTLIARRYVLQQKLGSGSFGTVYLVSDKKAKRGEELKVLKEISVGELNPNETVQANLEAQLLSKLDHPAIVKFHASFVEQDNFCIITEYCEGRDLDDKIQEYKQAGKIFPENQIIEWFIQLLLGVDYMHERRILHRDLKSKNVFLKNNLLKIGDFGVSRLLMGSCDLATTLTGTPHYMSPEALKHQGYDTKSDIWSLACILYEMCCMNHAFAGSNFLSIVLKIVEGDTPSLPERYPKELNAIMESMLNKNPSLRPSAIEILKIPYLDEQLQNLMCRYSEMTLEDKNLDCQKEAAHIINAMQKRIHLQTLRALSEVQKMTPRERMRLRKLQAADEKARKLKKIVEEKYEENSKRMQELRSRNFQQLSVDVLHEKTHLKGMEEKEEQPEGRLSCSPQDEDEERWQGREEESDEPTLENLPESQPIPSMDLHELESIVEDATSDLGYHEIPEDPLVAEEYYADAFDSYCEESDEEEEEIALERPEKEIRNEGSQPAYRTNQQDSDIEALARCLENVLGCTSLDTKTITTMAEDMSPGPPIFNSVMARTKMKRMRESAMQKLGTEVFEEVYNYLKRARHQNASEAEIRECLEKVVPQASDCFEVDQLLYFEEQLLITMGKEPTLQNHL
Summary of the method: as §1

NEK2 = biological target: T5, NEK2 (Homo sapiens, UniProt P51955)
T5 construct: purchased Reaction Biology Corp
T5 sequence (P51955 1-445): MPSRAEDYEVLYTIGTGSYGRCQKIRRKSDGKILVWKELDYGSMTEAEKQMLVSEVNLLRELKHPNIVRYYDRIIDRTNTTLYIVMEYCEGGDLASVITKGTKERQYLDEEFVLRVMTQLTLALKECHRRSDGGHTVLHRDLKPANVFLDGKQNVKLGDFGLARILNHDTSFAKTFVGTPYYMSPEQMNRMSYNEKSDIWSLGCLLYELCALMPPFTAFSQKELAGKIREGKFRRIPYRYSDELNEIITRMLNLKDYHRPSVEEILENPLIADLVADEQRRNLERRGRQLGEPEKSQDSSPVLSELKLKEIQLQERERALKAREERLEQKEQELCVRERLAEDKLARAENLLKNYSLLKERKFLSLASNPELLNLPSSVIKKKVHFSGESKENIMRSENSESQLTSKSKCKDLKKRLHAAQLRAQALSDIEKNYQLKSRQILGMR
Summary of the method: as §1

[1] = read-out: % Enzyme Activity (relative to DMSO controls) Run 1
[2] = read-out: % Enzyme Activity (relative to DMSO controls) Run 2

T3 sequence (Q9UIK4 whole entry): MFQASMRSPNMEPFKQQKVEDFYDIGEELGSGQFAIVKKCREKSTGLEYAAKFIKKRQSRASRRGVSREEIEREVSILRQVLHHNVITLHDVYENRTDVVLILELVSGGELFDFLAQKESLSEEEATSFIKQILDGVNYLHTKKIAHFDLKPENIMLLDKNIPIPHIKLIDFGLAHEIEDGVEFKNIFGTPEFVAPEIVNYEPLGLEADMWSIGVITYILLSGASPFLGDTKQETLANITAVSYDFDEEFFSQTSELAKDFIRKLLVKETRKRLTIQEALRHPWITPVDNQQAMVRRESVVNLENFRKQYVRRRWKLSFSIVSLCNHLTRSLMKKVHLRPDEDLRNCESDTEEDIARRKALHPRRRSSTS
T2 sequence (P41240 whole entry): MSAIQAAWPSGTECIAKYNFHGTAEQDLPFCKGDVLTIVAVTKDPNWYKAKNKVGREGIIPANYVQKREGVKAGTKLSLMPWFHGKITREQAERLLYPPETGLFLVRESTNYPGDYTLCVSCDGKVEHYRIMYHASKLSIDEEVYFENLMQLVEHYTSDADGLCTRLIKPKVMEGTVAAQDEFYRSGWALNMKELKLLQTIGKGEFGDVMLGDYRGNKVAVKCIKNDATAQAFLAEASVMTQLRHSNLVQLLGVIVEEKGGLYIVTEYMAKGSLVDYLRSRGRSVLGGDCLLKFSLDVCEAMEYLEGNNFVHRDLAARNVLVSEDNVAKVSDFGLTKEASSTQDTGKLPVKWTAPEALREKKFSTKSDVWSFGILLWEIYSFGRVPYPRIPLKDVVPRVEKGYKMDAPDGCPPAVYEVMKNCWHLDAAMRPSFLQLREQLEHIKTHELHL

## C=CC(=O)Nc1cccc(Nc2nc(Nc3ccc(OCCOC)c(F)c3)ncc2F)c1 [Compound 2]
EPHA3
  inhibition at 3 µM: 1.81%
EPHA3; [1]
  remaining activity at 3 µM: 96.2%
EPHA3; [2]
  remaining activity at 3 µM: 100%
CSK
  inhibition at 3 µM: 18.2%
CSK; [1]
  remaining activity at 3 µM: 81.7%
CSK; [2]
  remaining activity at 3 µM: 81.8%
DAPK2
  inhibition at 3 µM: -9.89%
DAPK2; [1]
  remaining activity at 3 µM: 108%
DAPK2; [2]
  remaining activity at 3 µM: 112%
NEK11
  inhibition at 3 µM: 7.32%
NEK11; [1]
  remaining activity at 3 µM: 92.5%
NEK11; [2]
  remaining activity at 3 µM: 92.8%
NEK2
  inhibition at 3 µM: -4.44%
NEK2; [1]
  remaining activity at 3 µM: 102%
NEK2; [2]
  remaining activity at 3 µM: 107%

Source: patent US9492471B2, “Methods of treating a disease or disorder associated with Bruton'S Tyrosine Kinase” (Celgene Avilomics Research, Inc., priority 2013, dated 2016)
